Literature values in patent publication US8673343B2, “Preparation and administration of jojoba product for reducing weight, fat and blood lipid levels and for the prevention and treatment of cancer” (Yiwu Jiangr Bio-Technology HK Corp., priority 2001, dated 2014).

How the values were obtained:
[1] = animal and human studies
[2] = growing rats, long-term administration of lower doses

For CO[C@H]1[C@@H](OC)C[C@@H](O[C@@H]2O[C@H](CO)[C@@H](O)[C@H](O)[C@H]2O)/C(=C\C#N)[C@@H]1O [simmondsin, 2-(cyanomethylene)-3-hydroxy-4,5-dimethoxycyclohexyl beta-D-glucoside], the “other side effects commonly associated with cancer chemotherapy” value [1] is listed as “no other side effects”, the side effects [2] is listed as “without showing any side effects” and the “sustained food intake inhibition” value [2] is listed as “about 20%”.
